{"source": "patent US20230374030A1", "about": "“SOLID-STATE FORMS OF RELUGOLIX” (MACFARLAN SMITH LIMITED, priority 2019, published 2023)", "type_in_all_cases": "physicochemical", "key": {"[1]": {"assay": "Solid-state stability on drying under vacuum", "procedure": "Form A of the DMF solvate of relugolix is stable, i.e., it is unchanged after prolonged drying (e.g., about 2 days) under vacuum at about 70° C."}, "[2]": {"assay": "Dynamic vapor sorption (DVS)", "conditions": "for weight loss in DVS: relative humidity about 0 to 95%", "procedure": "DVS samples are analyzed using a TA Instruments Q5000SA gravimetric water sorption analyzer. The relative humidity is adjusted between about 0-95% and the weight of the sample is continuously monitored and recorded with respect to the relative humidity and time."}, "[3]": {"assay": "Solid-state stability under humidity (storage at high humidity; XRPD after DVS)", "conditions": "for stability at various humidity levels: XRPD analysis after DVS"}}, "data": [{"compound": "CONC(=O)Nc1ccc(-c2sc3c(c2CN(C)C)c(=O)n(-c2ccc(OC)nn2)c(=O)n3Cc2c(F)cccc2F)cc1", "note": "[Form A of the DMF solvate of relugolix, 1-[4-[1-[(2,6-difluorophenyl)-methyl]-5-[(dimethylamino)methyl]-3-(6-methoxypyridazin-3-yl)-2,4-dioxothieno-[2,3-d]pyrimidin-6-yl]phenyl]-3-methoxyurea]", "values": [{"measurement": "stability after prolonged drying", "setting": "[1]; about 2 days under vacuum at about 70° C.", "value": "unchanged"}, {"measurement": "loss of mass in DVS", "setting": "[2]; at about 90% RH", "value": "about 1%"}, {"measurement": "stability under humidity", "setting": "[3]; about 97% humidity, ambient temperatures, over a month", "value": "remains unchanged"}]}, {"compound": "CONC(=O)Nc1ccc(-c2sc3c(c2CN(C)C)c(=O)n(-c2ccc(OC)nn2)c(=O)n3Cc2c(F)cccc2F)cc1", "note": "[Form C of anhydrous relugolix, 1-[4-[1-[(2,6-difluorophenyl)-methyl]-5-[(dimethylamino)methyl]-3-(6-methoxypyridazin-3-yl)-2,4-dioxothieno-[2,3-d]pyrimidin-6-yl]phenyl]-3-methoxyurea]", "values": [{"measurement": "water absorption in DVS (and secretion of it all)", "setting": "[2]; relative humidity about 0 to about 95%", "value": "~2", "unit": "%"}, {"measurement": "stability at various humidity levels", "setting": "[3]", "value": "remains stable"}]}, {"compound": "CONC(=O)Nc1ccc(-c2sc3c(c2CN(C)C)c(=O)n(-c2ccc(OC)nn2)c(=O)n3Cc2c(F)cccc2F)cc1", "note": "[Form B of anhydrous relugolix, 1-[4-[1-[(2,6-difluorophenyl)-methyl]-5-[(dimethylamino)methyl]-3-(6-methoxypyridazin-3-yl)-2,4-dioxothieno-[2,3-d]pyrimidin-6-yl]phenyl]-3-methoxyurea]", "values": [{"measurement": "weight loss in DVS", "setting": "[2]", "value": "about 7%"}, {"measurement": "stability at various humidity levels", "setting": "[3]", "value": "remains stable"}]}, {"compound": "CONC(=O)Nc1ccc(-c2sc3c(c2CN(C)C)c(=O)n(-c2ccc(OC)nn2)c(=O)n3Cc2c(F)cccc2F)cc1", "note": "[Form A of anhydrous relugolix, 1-[4-[1-[(2,6-difluorophenyl)-methyl]-5-[(dimethylamino)methyl]-3-(6-methoxypyridazin-3-yl)-2,4-dioxothieno-[2,3-d]pyrimidin-6-yl]phenyl]-3-methoxyurea]", "values": [{"measurement": "XRPD changes after drying", "setting": "[1]; about 18 hours at about 30° C. under vacuum", "value": "no changes"}, {"measurement": "weight loss in DVS", "setting": "[2]", "value": "about 2%"}, {"measurement": "stability at various humidity levels", "setting": "[3]", "value": "remains stable"}]}]}
